This is an account of results in publication PMC4556830, “The Effect of MGCD0103 on CYP450 Isoforms Activity of Rats by Cocktail Method” (BioMed Research International, 2015).

The series is described as follows: Pharmacokinetics of six cocktail probe drugs in rat plasma (UPLC-MS/MS) after 7-day MGCD0103 or saline. The note with it: for Cmax / half-life: Sprague-Dawley, rat, in vivo, po; for Cmax: C max; for difference for AUC, t 1/2 between high dosage group and control group: p > 0.05. As to the method: The compounds were analyzed by a UPLC-MS/MS with ACQUITY I-Class UPLC and a XEVO TQD triple quadrupole mass spectrometer that was equipped with an electrospray ionization (ESI) interface (Waters Corp., Milford, MA, USA). The UPLC system included a Sample Manager with Flow-Through Needle (SM-FTN) and a Binary Solvent Manager (BSM). Data acquisition and instrument control were performed on the MassLynx 4.1 software (Waters Corp., Milford, MA, USA).
The initial mobile phase consisted of 0.1% formic acid and acetonitrile with gradient elution at a flow rate of 0.4 mL/min and an injection volume of 2 μL. […] The total run time of the analysis was 3 min.
The mass spectrometric detection was performed in a positive mode. Nitrogen was used as the cone gas (50 L/h) and desolvation gas (1000 L/h). The mass conditions were set as follows: source temperature 150°C, capillary voltage 2.5 kV, and desolvation temperature 500°C.
Forty rats (220 ± 20 g) were randomly divided into four different dosages of MGCD0103 groups (Low group, Medium group, High group, and control group with 10 rats in each group). MGCD0103 was dissolved in corn oil as suspension at three different concentrations (20, 40, and 80 mg/mL). Three different MGCD0103 groups (Low group, Medium group, and High group) were respectively given MGCD0103 20, 40, and 80 mg/kg one time by intragastric administration at every morning and last for 7 days. Control group were given saline by same administration method.
100 μL of plasma was obtained from blood sample after centrifugation at 4000 g for 10 min. In a 1.5 mL centrifuge tube, 200 μL of acetonitrile (containing 50 ng/mL IS) was added into 100 μL of collected plasma sample. […] Then supernatant (2 μL) was injected into the UPLC-MS/MS system for analysis.
Concentration of plasma probe drugs versus time was analyzed by Version 3.0 Data Analysis System (Wenzhou Medical University, China). The main pharmacokinetic parameters of the MGCD0103 group and control group were analyzed by SPSS l8.0 statistical software.

[1] abbreviates: Control group: saline i.g. 7 days (no MGCD0103), then probe 10 mg/kg (tolbutamide 1 mg/kg) i.g., rat plasma, mean ± SD, n = 10.
Setting [2] is: High group: MGCD0103 80 mg/kg i.g. 7 days, then probe 10 mg/kg (tolbutamide 1 mg/kg) i.g., rat plasma, mean ± SD, n = 10.
Setting [3] is: Low group: MGCD0103 20 mg/kg i.g. 7 days, then probe 10 mg/kg (tolbutamide 1 mg/kg) i.g., rat plasma, mean ± SD, n = 10.
The mark [4] stands for this setting: Medium group: MGCD0103 40 mg/kg i.g. 7 days, then probe 10 mg/kg (tolbutamide 1 mg/kg) i.g., rat plasma, mean ± SD, n = 10.
Setting [5] is: high dosage MGCD0103 group vs control.

In the case of `C[C@]12CC[C@H]3[C@@H](CCC4=CC(=O)CC[C@@]43C)[C@@H]1CC[C@@H]2O` [Testosterone], the “AUC(0–t)” value runs as follows: under setting [1], 85.9 ± 40.6 ng/mL∗h; under setting [2], 490.7 ± 1044.2 ng/mL∗h; under setting [3], 404.5 ± 908.2 ng/mL∗h; under setting [4], 81.3 ± 28.8 ng/mL∗h. The “AUC(0–∞)” value is, setting by setting: under setting [1], 89.9 ± 43.9 ng/mL∗h; under setting [2], 524.5 ± 1042.4 ng/mL∗h; under setting [3], 417.2 ± 927.8 ng/mL∗h; under setting [4], 106.5 ± 45.1 ng/mL∗h. Besides, the CL by setting is: under setting [1], 143.8 ± 89.6 L/h/kg; under setting [2], 64.9 ± 33.4^∗ L/h/kg; under setting [3], 104.8 ± 49.0 L/h/kg; under setting [4], 109.0 ± 43.8 L/h/kg. This molecule yielded a V under setting [1] of 161.1 ± 82.2 L/kg, a V under setting [2] of 254.0 ± 291.0 L/kg, a V under setting [3] of 259.1 ± 168.6 L/kg and a V under setting [4] of 253.2 ± 204.3 L/kg. For the same molecule, the Cmax is, setting by setting: (10 mg/kg, Control group: saline i.g. 7 days (no MGCD0103), then probe 10 mg/kg (tolbutamide 1 mg/kg) i.g., rat plasma, mean ± SD, n = 10) 88.1 ± 54.2 ng/mL; (10 mg/kg, High group: MGCD0103 80 mg/kg i.g. 7 days, then probe 10 mg/kg (tolbutamide 1 mg/kg) i.g., rat plasma, mean ± SD, n = 10) 462 ± 1030 ng/mL; (10 mg/kg, Low group: MGCD0103 20 mg/kg i.g. 7 days, then probe 10 mg/kg (tolbutamide 1 mg/kg) i.g., rat plasma, mean ± SD, n = 10) 302 ± 631 ng/mL; (10 mg/kg, Medium group: MGCD0103 40 mg/kg i.g. 7 days, then probe 10 mg/kg (tolbutamide 1 mg/kg) i.g., rat plasma, mean ± SD, n = 10) 93.2 ± 75.3 ng/mL. The molecule further had a half-life (10 mg/kg, t 1/2, Control group: saline i.g. 7 days (no MGCD0103), then probe 10 mg/kg (tolbutamide 1 mg/kg) i.g., rat plasma, mean ± SD, n = 10) of 1 ± 0.6 h; a half-life (10 mg/kg, t 1/2, High group: MGCD0103 80 mg/kg i.g. 7 days, then probe 10 mg/kg (tolbutamide 1 mg/kg) i.g., rat plasma, mean ± SD, n = 10) of 4 ± 7.1 h; a half-life (10 mg/kg, t 1/2, Low group: MGCD0103 20 mg/kg i.g. 7 days, then probe 10 mg/kg (tolbutamide 1 mg/kg) i.g., rat plasma, mean ± SD, n = 10) of 1.7 ± 0.8 h; a half-life (10 mg/kg, t 1/2, Medium group: MGCD0103 40 mg/kg i.g. 7 days, then probe 10 mg/kg (tolbutamide 1 mg/kg) i.g., rat plasma, mean ± SD, n = 10) of 2.2 ± 2.4 h. Further, the “change of CL versus control group” value (high dosage MGCD0103 group vs control, p < 0.05) is “shortened”. The “difference for AUC, t 1/2 between high dosage group and control group” value (from here on “difference for AUC”) under setting [5] was “no significant difference”.
On to `CC(NC(C)(C)C)C(=O)c1cccc(Cl)c1` (stereo not shown) [Bupropion], for which the “AUC(0–t)” value by setting is: under setting [1], 144.8 ± 94.1 ng/mL∗h; under setting [2], 218.2 ± 460.8 ng/mL∗h; under setting [3], 282.5 ± 403.2 ng/mL∗h; under setting [4], 120.4 ± 45.1 ng/mL∗h. Also, the “AUC(0–∞)” value is 146.7 ± 95.1 ng/mL∗h under setting [1], 235.2 ± 502.8 ng/mL∗h under setting [2], 324.2 ± 506.3 ng/mL∗h under setting [3] and 122.3 ± 45.2 ng/mL∗h under setting [4]. Also, where the note is “10 mg/kg”, the Cmax worked out at 157 ± 179 ng/mL. The molecule also showed a half-life (10 mg/kg, t 1/2) of 0.8 ± 0.4 h. For the same molecule, the “difference for AUC” value under setting [5] was “no significant difference”.
For the molecule `COCCc1ccc(OCC(O)CNC(C)C)cc1` (stereo not shown) [Metoprolol], the “AUC(0–t)” value by setting is: under setting [1], 709.2 ± 255.8 ng/mL∗h; under setting [2], 1031.8 ± 1261.2 ng/mL∗h; under setting [3], 698.1 ± 348.6 ng/mL∗h; under setting [4], 836.1 ± 499.8 ng/mL∗h. The “AUC(0–∞)” value was 724.2 ± 255.8 ng/mL∗h under setting [1], 1046.4 ± 1258.4 ng/mL∗h under setting [2], 703.8 ± 351.6 ng/mL∗h under setting [3] and 843.7 ± 498.4 ng/mL∗h under setting [4]. Under “t 1/2”, this molecule had a half-life of 0.8 ± 0.1 h. Further, the “difference for AUC” value under setting [5] is “no significant difference”.
In the case of `CCOc1ccc(NC(C)=O)cc1` [Phenacetin], the “AUC(0–t)” value under setting [1] came to 3831.2 ± 2840.9 ng/mL∗h, the “AUC(0–t)” value under setting [2] is given as 2869.8 ± 3189.9 ng/mL∗h, the “AUC(0–t)” value under setting [3] turned out to be 2973.6 ± 1807.0 ng/mL∗h and the “AUC(0–t)” value under setting [4] is listed as 2910.1 ± 1758.5 ng/mL∗h. The “AUC(0–∞)” value is recorded as 3833.6 ± 2839.3 ng/mL∗h under setting [1], 2871.9 ± 3189.0 ng/mL∗h under setting [2], 2975.9 ± 1806.6 ng/mL∗h under setting [3] and 2918.2 ± 1751.4 ng/mL∗h under setting [4]. For the setting “10 mg/kg”, this molecule came in with a Cmax of 2880 ± 1630 ng/mL. Besides, the half-life (10 mg/kg, t 1/2) was 0.6 ± 0.4 h. Besides, under setting [5], the “difference for AUC” value is listed as “no significant difference”.

As usually defined, the Cmax is the peak of the concentration-time curve. Usually half-life stands for how long it takes for the measured level to halve. Lower therefore signals rapid decline.
